Assays:
[1] = mn = molality of the nth substance listed, in mol/kg; conditions: 101 kPa, Liquid; for viscosity: Cone and plate viscometry; for electrical conductivity: Frequency=0 MHz, Direct current cell with electrodes
[2] = for viscosity / electrical conductivity: 101 kPa, Liquid; for viscosity: Cone and plate viscometry; for electrical conductivity: Frequency=0 MHz, Direct current cell with electrodes

CCCC[N+]1(C)CCCC1.O=S(=O)([N-]S(=O)(=O)C(F)(F)F)C(F)(F)F + [F][Ta]([F])([F])([F])[F]
[1], m2 = 0
Conditions | electrical conductivity [S/m] | viscosity [mPa·s]
293.15 K | 0.25 | 102
303.15 K | – | 67
312.15 K | – | 47
312.17 K | – | 47
313.15 K | 0.47 | –
321.22 K | – | 36
323.15 K | 0.63 | –
330.29 K | – | 28
333.15 K | 0.8 | –
339.37 K | – | 22
343.15 K | 1.01 | –
348.44 K | – | 17
353.15 K | 1.21 | –
357.52 K | – | 14
367.49 K | – | 11
373.15 K | 1.74 | –
377.46 K | – | 10
386.53 K | – | 8
393.15 K | 2.3 | –
394.73 K | – | 7
403.15 K | – | 6
413.15 K | 2.92 | –
433.15 K | 3.61 | –
453.15 K | 4.33 | –

[F][Ta]([F])([F])([F])[F] [Tantalum fluoride] + CCCC[N+]1(C)CCCC1.O=S(=O)([N-]S(=O)(=O)C(F)(F)F)C(F)(F)F
[1]
Conditions | electrical conductivity, 293.15 K [S/m] | electrical conductivity, 373.15 K [S/m] | electrical conductivity, 413.15 K [S/m] | electrical conductivity, 453.15 K [S/m] | viscosity, 303.15 K [mPa·s] | viscosity, 312.17 K [mPa·s] | viscosity, 321.22 K [mPa·s] | viscosity, 339.37 K [mPa·s] | viscosity, 367.49 K [mPa·s] | viscosity, 403.15 K [mPa·s]
m1 = 0.08 | 0.24 | 1.73 | 2.94 | 4.23 | 71 | 51 | 38 | 23 | 12 | 7
m1 = 0.17 | 0.23 | 1.66 | 2.81 | 4.16 | 73 | 52 | 40 | 24 | 12 | 7
m1 = 0.35 | 0.23 | 1.65 | 2.78 | 4.13 | 77 | 56 | 41 | 25 | 13 | 7
m1 = 0.7 | 0.22 | 1.56 | 2.66 | 3.84 | 81 | 59 | 44 | 26 | 14 | 8
m1 = 1.41 | 0.22 | 1.37 | 2.27 | 3.44 | 87 | 62 | 47 | 28 | 15 | 8

CCCC[N+]1(C)CCCC1.O=S(=O)([N-]S(=O)(=O)C(F)(F)F)C(F)(F)F
[2]
Conditions | electrical conductivity [S/m] | viscosity [mPa·s]
293.15 K | 0.25 | 102
303.15 K | – | 67
312.15 K | – | 47
312.17 K | – | 47
313.15 K | 0.47 | –
321.22 K | – | 36
323.15 K | 0.63 | –
330.29 K | – | 28
333.15 K | 0.8 | –
339.37 K | – | 22
343.15 K | 1.01 | –
348.44 K | – | 17
353.15 K | 1.21 | –
357.52 K | – | 14
367.49 K | – | 11
373.15 K | 1.74 | –
377.46 K | – | 10
386.53 K | – | 8
393.15 K | 2.3 | –
394.73 K | – | 7
403.15 K | – | 6
413.15 K | 2.92 | –
433.15 K | 3.61 | –
453.15 K | 4.33 | –

Conditions | Normal melting temperature [°C]
[2], Crystal, DTA | -22
